Assay results reported in PubChem BioAssay AID2060891 (Molecular Pharmacology Branch, DTP, NCI, 2025).

System: K98450-129-R-PDC complex spheroid growth, percent test/control
Experiment: Anticancer human tumor K98450-129-R-PDC patient-derived colon adenocarcinoma cell line growth inhibition [RAS]
Details: for IC50: curve of first compound; for viability, T/C: stronger effect = lower value; active = viability on the fitted dose curve at most 10% of control; inactive = the rest
How it was run: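 Agents were tested in combination matrices in half-log decrements from a top concentration at or near clinical Cmax (10 microM if undetermined). Targets were multi-cell spheroids of tumour lines plus HUVEC and MSC stromal cells.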

[1] = second compound 0.000949 µM, first compound 0.00316 µM
[2] = second compound 0.000949 µM, first compound 0.01 µM
[3] = second compound 0.000949 µM, first compound 0.0316 µM
[4] = second compound 0.000949 µM, first compound 0.1 µM
[5] = second compound 0.000949 µM, first compound 0.316 µM
[6] = second compound 0.000949 µM, first compound 1 µM
[7] = second compound 0.003 µM, first compound 0.00316 µM
[8] = second compound 0.003 µM, first compound 0.01 µM
[9] = second compound 0.003 µM, first compound 0.0316 µM
[10] = second compound 0.003 µM, first compound 0.1 µM
[11] = second compound 0.003 µM, first compound 0.316 µM
[12] = second compound 0.003 µM, first compound 1 µM
[13] = second compound 0.00949 µM, first compound 0.00316 µM
[14] = second compound 0.00949 µM, first compound 0.01 µM
[15] = second compound 0.00949 µM, first compound 0.0316 µM
[16] = second compound 0.00949 µM, first compound 0.1 µM
[17] = second compound 0.00949 µM, first compound 0.316 µM
[18] = second compound 0.00949 µM, first compound 1 µM
[19] = second compound 0.03 µM, first compound 0.00316 µM
[20] = second compound 0.03 µM, first compound 0.01 µM
[21] = second compound 0.03 µM, first compound 0.0316 µM
[22] = second compound 0.03 µM, first compound 0.1 µM
[23] = second compound 0.03 µM, first compound 0.316 µM
[24] = second compound 0.03 µM, first compound 1 µM
[25] = second compound 0.0949 µM, first compound 0.00316 µM
[26] = second compound 0.0949 µM, first compound 0.01 µM
[27] = second compound 0.0949 µM, first compound 0.0316 µM
[28] = second compound 0.0949 µM, first compound 0.1 µM
[29] = second compound 0.0949 µM, first compound 0.316 µM
[30] = second compound 0.0949 µM, first compound 1 µM
[31] = second compound 0.3 µM, first compound 0.00316 µM
[32] = second compound 0.3 µM, first compound 0.01 µM
[33] = second compound 0.3 µM, first compound 0.0316 µM
[34] = second compound 0.3 µM, first compound 0.1 µM
[35] = second compound 0.3 µM, first compound 0.316 µM
[36] = second compound 0.3 µM, first compound 1 µM
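Note: spheroids exposed to agents for seven days before the viability readout.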
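Throughout, for viability, T/C: luminescence used as a proxy for viable cell amount.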

C=CC(=O)Nc1cc(Nc2nccc(-c3cn(C)c4ccccc34)n2)c(OC)cc1N(C)CCN(C)C + CCn1c(-c2cc(N3CCN(C)CC3)cnc2C(C)OC)c2c3cc(ccc31)-c1csc(n1)CC(NC(=O)C1CC1C)C(=O)N1CCCC(N1)C(=O)OCC(C)(C)C2
< 3.16 nM: IC50 (second compound 0.03 µM) | IC50 (second compound 0.0949 µM) | IC50 (second compound 0.3 µM)
inactive: viability, T/C [1] 91.9% | viability, T/C [2] 89.4% | viability, T/C [3] 94.1% | viability, T/C [4] 73.6% | viability, T/C [5] 52.8% | viability, T/C [6] 22.7% | viability, T/C [7] 93% | viability, T/C [8] 92% | viability, T/C [9] 72.8% | viability, T/C [10] 66.8% | viability, T/C [11] 41.8% | viability, T/C [12] 13.6% | viability, T/C [13] 74.9% | viability, T/C [14] 65.2% | viability, T/C [15] 65.6% | viability, T/C [16] 49% | viability, T/C [17] 15.2% | viability, T/C [19] 50.5% | viability, T/C [20] 49% | viability, T/C [21] 48.8% | viability, T/C [22] 18.7% | viability, T/C [25] 21% | viability, T/C [26] 18.5% | viability, T/C [27] 14.1% | viability, T/C [28] 10.6% | viability, T/C [31] 12.9% | viability, T/C [32] 11.8% | viability, T/C [33] 11.4%
336 nM: IC50 (second compound 0.000949 µM)
89.7 nM: IC50 (second compound 0.00949 µM)
active: viability, T/C [18] 8.83% | viability, T/C [23] 10.5% | viability, T/C [24] 7.69% | viability, T/C [29] 8.27% | viability, T/C [30] 7.06% | viability, T/C [34] 8.91% | viability, T/C [35] 7.33% | viability, T/C [36] 7.02%
209 nM: IC50 (second compound 0.003 µM)

CC(Nc1ccc2c(c1)OCCn1cc(N3C(=O)OCC3C(F)F)nc1-2)C(N)=O (stereo unspecified) + CCn1c(-c2cc(N3CCN(C)CC3)cnc2C(C)OC)c2c3cc(ccc31)-c1csc(n1)CC(NC(=O)C1CC1C)C(=O)N1CCCC(N1)C(=O)OCC(C)(C)C2
inactive: viability, T/C [3] 93.6% | viability, T/C [4] 83.7% | viability, T/C [5] 86.7% | viability, T/C [6] 63.9% | viability, T/C (second compound 0.000949 µM, first compound 3.16 µM) 70.4% | viability, T/C (second compound 0.000949 µM, first compound 10 µM) 61.7% | viability, T/C [9] 84% | viability, T/C [10] 81.1% | viability, T/C [11] 75.2% | viability, T/C [12] 67.5% | viability, T/C (second compound 0.003 µM, first compound 3.16 µM) 68.4% | viability, T/C (second compound 0.003 µM, first compound 10 µM) 61.3% | viability, T/C [15] 73.8% | viability, T/C [16] 74.8% | viability, T/C [17] 60.5% | viability, T/C [18] 55.4% | viability, T/C (second compound 0.00949 µM, first compound 3.16 µM) 54.8% | viability, T/C (second compound 0.00949 µM, first compound 10 µM) 51% | viability, T/C [21] 38.4% | viability, T/C [22] 48.4% | viability, T/C [23] 42.3% | viability, T/C [24] 35.4% | viability, T/C (second compound 0.03 µM, first compound 3.16 µM) 33.8% | viability, T/C (second compound 0.03 µM, first compound 10 µM) 26.8% | viability, T/C [27] 17.5% | viability, T/C [28] 15.9% | viability, T/C [29] 16% | viability, T/C [30] 14.7% | viability, T/C (second compound 0.0949 µM, first compound 3.16 µM) 10.8% | viability, T/C (second compound 0.0949 µM, first compound 10 µM) 10.1% | viability, T/C [33] 10%
> 10000 nM: IC50 (second compound 0.000949 µM) | IC50 (second compound 0.003 µM) | IC50 (second compound 0.00949 µM)
< 31.6 nM: IC50 (second compound 0.03 µM) | IC50 (second compound 0.0949 µM) | IC50 (second compound 0.3 µM)
active: viability, T/C [34] 10.2% | viability, T/C [35] 9.37% | viability, T/C [36] 8.15% | viability, T/C (second compound 0.3 µM, first compound 3.16 µM) 7.17% | viability, T/C (second compound 0.3 µM, first compound 10 µM) 4.8%

O=C(c1ccc(F)c(F)c1Nc1ccc(I)cc1F)N1CC(O)([C@@H]2CCCCN2)C1 + CCn1c(-c2cc(N3CCN(C)CC3)cnc2C(C)OC)c2c3cc(ccc31)-c1csc(n1)CC(NC(=O)C1CC1C)C(=O)N1CCCC(N1)C(=O)OCC(C)(C)C2
active: viability, T/C [6] 2.95% | viability, T/C [12] 2.62% | viability, T/C [17] 3.99% | viability, T/C [18] 2.44% | viability, T/C [22] 6.53% | viability, T/C [23] 2.64% | viability, T/C [24] 2.51% | viability, T/C [26] 10.1% | viability, T/C [27] 7.08% | viability, T/C [28] 2.95% | viability, T/C [29] 2.96% | viability, T/C [30] 2.57% | viability, T/C [31] 8.48% | viability, T/C [32] 8.02% | viability, T/C [33] 4.92% | viability, T/C [34] 2.97% | viability, T/C [35] 3.32% | viability, T/C [36] 2.59%
42.2 nM: IC50 (second compound 0.00949 µM)
64.2 nM: IC50 (second compound 0.003 µM)
< 3.16 nM: IC50 (second compound 0.0949 µM) | IC50 (second compound 0.3 µM)
3.23 nM: IC50 (second compound 0.03 µM)
inactive: viability, T/C [1] 94.8% | viability, T/C [2] 92% | viability, T/C [3] 87.4% | viability, T/C [4] 57.3% | viability, T/C [5] 10.2% | viability, T/C [7] 95.7% | viability, T/C [8] 87% | viability, T/C [9] 63.2% | viability, T/C [10] 45.8% | viability, T/C [11] 7.54% | viability, T/C [13] 67.8% | viability, T/C [14] 60.7% | viability, T/C [15] 56% | viability, T/C [16] 31.1% | viability, T/C [19] 51.7% | viability, T/C [20] 45% | viability, T/C [21] 31.1% | viability, T/C [25] 14.9%
118 nM: IC50 (second compound 0.000949 µM)
